Source: patent US20090298708A1, “2'-DEOXY-2'-FLUORO-BETA-D-ARABINONUCLEOSIDE 5'-TRIPHOSPHATES AND THEIR USE IN ENZYMATIC NUCLEIC ACID SYNTHESIS” (priority 2006, published 2009)

Experiments:
[1] = system: Phusion DNA polymerase (Ph); test: Dropout assay, fidelity of incorporation by Ph; format: biochemical; conditions: 30 min reaction time, 55° C., templates PF21, PF41
From the text: FIG. 13 illustrates the fidelity of 2′F-araNTP incorporation on pyrimidine rich DNA template PF21 by Ph DNA polymerase. […] Template PF41 and primer PF20 are shown; PF39 is a 27-nt DNA control.
FIG. 14 illustrates the fidelity of 2′F-araNTP incorporation on purine rich DNA template PF41 by Ph DNA polymerase. The base sequence of the primer, DNA template and resulting terminated products in different dropout conditions (condition 1-5) is shown. […] Lane 1: dNTPs; 2: drop out dCTP (i.e. dATP, dGTP and dTTP, shorten as AGT, same coding for lanes 3-5), lane 6: 2′F-araNTPs; 7: drop out 2′F-araCTP (i.e. 2′F-araATP, 2′F-araGTP, 2′F-araTTP, shorten as AGT; same coding for lanes 8-10). The template PF41 and the primer PF20 are shown; PF39 is a 27mer DNA control.
For example, the 2′F-araNTP of interest is removed from the pool, and the ensuing synthesis on DNA template (e.g. PF21, PF23, PF41, PF43) assessed in comparison with a control reaction containing all four 2′F-araNTPs. For comparison, dropout experiments containing dNTPs are run in parallel. […] Apparent fidelity was calculated according to the equation:
(§1) 1−[(% full-length−2′F-araNTP)/(% full-length+2′F-araNTP)]
In one of these assays, 2′F-araATP was removed from the pool, and the ensuing synthesis assessed in comparison with a control reaction containing all four 2′F-araNTPs. For comparison, dropout experiments containing dNTPs were run in parallel (FIGS. 11-14).
Phusion DNA polymerase (Ph) was evaluated for fidelity of 2′F-araNTP incorporation using the same dropout assay. All four dropout experiments were conducted with the same DNA template PF21 (FIG. 13), or PF41 (FIG. 14).

9N DNA polymerase = target: T1, 9N DNA polymerase (Thermococcus sp., UniProt Q56366, E143D); test: Dropout assay, fidelity of incorporation by 9N; format: biochemical, Thermococcus species (strain 9° N-7); conditions: 30 min reaction time, 25 μM triphosphates, 55° C., template A: PF41, G: PF43, T: PF21, C: PF23
T1 construct: purchased New England Biolabs; host or cells: E. coli
Method: (§2) FIG. 11A illustrates the fidelity of 2′F-araATP incorporation on a DNA template PF41 by DV and 9N DNA polymerases. Reaction conditions: 0.8 unit DV and 9N, 25 μM triphosphates at 55° C. in 30 μL reaction volume; incubation time: 30 min. Group 1 & 5: dNTPs; 2 & 6: dropout of dATP; 3 & 7: 2′F-araNTPs, 4 & 8: dropout of 2′F-araATP; 27mer control DNA is PF39.
(§3) FIG. 11B illustrates the fidelity of 2′F-araGTP incorporation on DNA template PF43 by DV and 9N DNA polymerases. Reaction conditions: primer/template (1:1 molar ratio): 100 nM; 0.4 μL (0.8 unit) DV, 9N, 25 μM triphosphate concentration at 55° C. in 30 μL reaction volume. Reaction time for dNTPs (group 1, 5) was 30 min and others were shown above. Group 1 & 5: dNTPs; 2 & 6: drop out dGTP (i.e. dTTP, dCTP and dATP), 3 & 7: 2TF-araNTPs, 4 & 8: drop out 2′F-araGTP; lane P is the template PF41 as the full-length product control; PF39 is a 27-nt DNA control. All samples were analyzed by 12% denaturing PAGE.
(§4) FIG. 12A illustrates the fidelity of 2′F-araTTP incorporation by DV and 9N DNA polymerases on a DNA template PF21. Reaction conditions: 100 nM primer/template (1:1 molar ratio); 0.4 μL (0.8 unit) DV or 9N, 25 μM triphosphate concentration at 55° C. in 30 μL reaction volume. Reaction time for dNTPs (group 1, 5) was 30 min and others were shown above. Groups 1 & 5: dNTPs; 2 & 6: drop out dTTP; 3 & 7: 2′F-araNTPs; 4 & 8: drop out 2′F-araTTPs. in B: group 1 & 5: dNTPs; 2 & 6: drop out dCTP; 3 & 7: 2′F-araNTPs; 4 & 8: drop out 2′F-araCTPs; PF39 is a 27-nt DNA control. All samples were analyzed by 12% denaturing PAGE.
(§5) FIG. 12B illustrates the fidelity study of 2′F-araCTP incorporation by DV and 9N DNA polymerases on a DNA template PF23. Reaction conditions: 100 nM primer/template (1:1 molar ratio); 0.4 μL (0.8 unit) DV or 9N, 25 μM triphosphate concentration at 55° C. in 30 μL reaction volume. Reaction time for dNTPs (groups 1, 5) was 30 min and others were shown above. Groups 1 & 5: dNTPs; 2 & 6: drop out dCTP; 3 & 7: 2′F-araNTPs; 4 & 8: drop out 2′F-araCTPs; PF39 is a 27-nt DNA control. All samples were analyzed by 12% denaturing PAGE.
(§6) “Dropout assays” (Ichida et al. (2005) J. Am. Chem. Soc. 127:2802-2803) were conducted to assess the fidelity of 2′F-araNTP incorporation (each of 2′F-araATP, 2′F-araCTP, 2′F-araGTP and 2′F-araTTP) by various DNA polymerases (FIGS. 11-14). For example, the 2′F-araNTP of interest is removed from the pool, and the ensuing synthesis on DNA template (e.g. PF21, PF23, PF41, PF43) assessed in comparison with a control reaction containing all four 2′F-araNTPs. For comparison, dropout experiments containing dNTPs are run in parallel. Full-length DNA and FANA products are obtained when all four dNTPs (group 1 and 5) and 2′F-araNTPs (groups 3 and 7) were available, however, some pausing may occur during synthesis of the arabinose modified oligomers. Apparent fidelity was calculated according to the equation:
as §1
(§7) at 30 min reaction time (sample equation for dNTP values). >99% means that the full-length product was not detectable in our dropout assays.
(§8) “Dropout assays” (Ichida et al. (2005) J. Am. Chem. Soc. 127:2802-2803) were conducted to assess apparent fidelity of 2′F-araNTP incorporation by DV and 9N. In one of these assays, 2′F-araATP was removed from the pool, and the ensuing synthesis assessed in comparison with a control reaction containing all four 2′F-araNTPs. For comparison, dropout experiments containing dNTPs were run in parallel (FIGS. 11-14). Full-length DNA and FANA products were obtained when all four dNTPs (group 1 and 5) and 2′F-araNTPs (groups 3 and 7) were available, although some pausing was evident during synthesis of the arabinose modified oligomers.

DV DNA polymerase = target: T2, DV DNA polymerase (Pyrococcus sp., UniProt Q51334, D141A/DEL493-1029/E143A); test: Dropout assay, fidelity of incorporation by DV; format: biochemical, Pyrococcus species GB-D; conditions: 30 min reaction time, 25 μM triphosphates, 55° C., template A: PF41, G: PF43, T: PF21, C: PF23
T2 construct: purchased New England Biolabs; host or cells: E. coli
Method: as §2, §3, §4, §5, §6, §1, §7, §8

HIV-1 RT (recombinant) = target: T3, HIV-1 RT (recombinant) (Human immunodeficiency virus type 1 group M subtype B, UniProt P04585); test: Primer extension assay with HIV-1 RT; format: biochemical; conditions: 37° C., DNA template PF22 (T/U triphosphates) or PF24 (C triphosphates), three contiguous units
T3 construct: Reverse transcriptases (RT): • MMLV-RT (MMLV or MM; source: Fermentas); • HIV-1 RT (recombinant); purchased Worthington Biochemical Corp
From the text: (§9) Primer extension assays were used to assess the incorporation of 2′F-araNTP on the various DNA templates (Table 1). The DNA primer (PF20) was first radioactively labeled at the 5′-hydroxyl terminus with a radioactive phosphorus probe and the enzyme T4 polynucleotide kinase (T4 PNK) (see Example 1 for General Methods). To assess the incorporation of 2′F-araNTPs, the primer and template were annealed, and the nucleoside 5′-triphosphates added in the presence of enzyme under the conditions specified in Table 2. Time points were obtained by analyzing small aliquots from the reaction mixture through polyacryamide gel electrophoresis (PAGE) and autoradiography.
(§10) Primer extension assays were used to assess the incorporation efficiency of contiguous 2′F-ara(T/C)TPs compared to 2′F-r(U/C)TP on a DNA template (e.g. PF22 or PF24). To this end, a DNA template (e.g. PF22: FIGS. 15, 16, 17A, 18, 21A; PF24: FIGS. 17B, 19, 20, 21B), primer and the appropriate NTPs (e.g. combination of dATP/dCTP/dGTP/ and NTP, where N=dT, 2′F-araT, 2′F-rU, or rU (FIGS. 15, 16, 17A, 18, 21A); or combination of dATP/dGTP/dTTP/ and NTP, where N=dC, 2′F-araC, 2′F-rC, or rC (FIGS. 17B, 19, 20, 21B)), were incubated in the presence one of MMLV-RT, 9N, HIV or DV polymerase. The protocols and conditions are described in Example 2 and Table 2.
(§11) Unless otherwise noticed in the Examples described below, the conditions used in the primer extension assays, such as dNTP concentration, reaction temperatures, concentration of Mg^2+, and reaction buffers (provided by the manufacturers, except for the HIV buffer which was prepared in-house) are shown in Table 2.
(§12) Primer extension assays were used to assess the incorporation of 2′F-araTTP on the DNA template (PF22). The DNA primer (PF20) was first radioactively labeled at the 5′-hydroxyl terminus with a radioactive phosphorus probe and the enzyme T4 polynucleotide kinase (T4 PNK) according to the manufacturer's specifications (MBI Fermentas Life Sciences, Burlington, ON). Incorporation of the ^32P label was accomplished in reaction mixtures consisting of DNA substrate (200 pmol), 2 μl loxreaction buffer (Buffer A for forward reaction: 500 mM Tris-HCl, pH 7.6 at 25° C., 100 mM MgCl2, 50 mM DTT, 1 mM spermidine and 1 mM EDTA), 1 μl T4 PNK enzyme solution (10 U/1 μl in a solution of 20 mM Tris-HCl, pH 7.5, 25 mM KCl, 0.1 mM EDTA, 2 mM DTT and 50% glycerol), 6 μl [γ-^32P]-ATP solution (6000 Ci/mmol, 10 mCi/ml; Amersham Biosciences, Inc.) and autoclaved sterile water to a final volume of 20 μl. The reaction mixture was incubated for about 45-60 min at 37° C., followed by a second incubation for 10 min at 95° C. to heat denature and deactivate the kinase enzyme. The solution was purified according to a standard protocol and the isolated yield of 5′-^32P-DNA following gel extraction averages 50%. The pure labeled samples were kept at −20° C. for future use.
(§13) Usually 2 or 3 folds of cold (unlabeled) DNA primer were combined with the radioactive primer. Then primer to template was mixed together with the final concentration at 85 nM for the primer and 255 nM for the template (i.e. the primer:template=1:3 molar ratio). The primer and template were heated at 95° C. for 5 min and annealed at 4° C. for at least two hours before use. In an Eppendorf tube, the following reagents, 5× or 10× buffer, nucleoside 5′-triphosphates (DATP, dGTP, dCTP, 2′F-araTTP at the same concentrations; see legend of FIG. 2), water, the primer and template mixture, were added together according to pre-calculated reaction volume (20 μL) and concentrations (see reaction conditions in Table 2). Mineral oil (20 μL) was usually used to prevent evaporation. The reaction mixture was incubated at either 37° C. or 55° C. and one of the various enzymes tested was added to initiate the primer extension reactions. […]

MMLV-RT = target: T4, MMLV-RT (Moloney murine leukemia virus, UniProt P03355); test: Primer extension assay with MMLV-RT; format: biochemical; conditions: MMLV-RT; 37° C.; DNA template PF22 (T/U triphosphates) or PF24 (C triphosphates); three contiguous units
T4 construct: Reverse transcriptases (RT): • MMLV-RT (MMLV or MM; source: Fermentas); purchased Fermentas
From the text: as §9, §10, §11, §12, §13

DNA polymerases = test: Primer extension assays, statement for all enzymes studied; format: biochemical; conditions: DNA template PF24; 9N, HIV, MMLV, DV
[2] = target: Phusion High-Fidelity DNA polymerase (Ph) (UniProt P61875); conditions: apparent fidelity, all 2'F-araNTP and dNTP dropouts; 55 C

Row | Molecule | % Apparent Fidelity, dNTP [1] | % Apparent Fidelity, dNTP (9N DNA polymerase) | % Apparent Fidelity, dNTP (DV DNA polymerase) | Order of efficiency of incorporation (HIV-1 RT (recombinant)) | Order of efficiency of incorporation (MMLV-RT) | activity [2] | other results
1 | Nc1ncnc2c1ncn2[C@H]1C[C@H](O)[C@@H](COP(=O)(O)OP(=O)(O)OP(=O)(O)O)O1 [dATP] | >99% | 80% | 1% | – | – | – | –
2 | Nc1nc2c(ncn2[C@H]2C[C@H](O)[C@@H](COP(=O)(O)OP(=O)(O)OP(=O)(O)O)O2)c(=O)[nH]1 [dGTP] | >99% | 84% | 62% | – | – | – | –
3 | Nc1ccn([C@@H]2O[C@H](COP(=O)(O)OP(=O)(O)OP(=O)(O)O)[C@@H](O)[C@H]2O)c(=O)n1 [rCTP, reference compound] | – | – | – | dCTP~2′F-rCTP ≧ 2′F-araCTP > CTP | dCTP~2′F-rCTP ≧ 2′F-araCTP > CTP | – | order of incorporation efficiency (DNA polymerases): dCTP=2′F-rCTP>2′F-araCTP >>rCTP
4 | O=c1ccn([C@@H]2O[C@H](COP(=O)(O)OP(=O)(O)OP(=O)(O)O)[C@@H](O)[C@H]2O)c(=O)[nH]1 [rUTP, reference compound] | – | – | – | dTTP > 2′F-araTTP > 2′F-rUTP > UTP | dTTP > 2′F-araTTP > 2′F-rUTP > UTP | – | –
5 | TAATACGACTCACTATA / AGAGCCTGAGAAGAGAGTATAGTGAGTCGTATTA [PF20/PF41 primer-template] | – | – | – | – | – | > 99% | –
6 | TAATACGACTCACTATA / TTTGCCACTCTTCTCCCTATAGTGAGTCGTATTA [PF20/PF21 primer-template] | – | – | – | – | – | > 99% | –
